Drawing on the supplement of paper PMC12137928, this text covers IC50 cell viability and efficacy for 20 compounds.

Counter-ions that a name gives are not always drawn. Bounds are passed on as bounds.

The test system of test [1] is HCT116. Conditions: 72 h. An outline of the steps:
(§1)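 Luminescence was read with CellTiter-Glo in HCT116 cells seeded at 250 per well in 1536-well plates. Signals were scaled between vehicle at 0% and positive control at -100%, then pattern-corrected. IC50 and maximal efficacy were obtained by fitting a four-parameter Hill equation.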

The test system of test [2] is HCT116. Briefly: efficacy (maximum % inhibition of viability vs DMSO); higher = more cytotoxic. Conditions: 72 h. An outline of the steps:
as §1

For the compound `Oc1ccc(CCNCCCCCCNCCc2ccccc2)cc1O` [Dopexamine], the IC50 cell viability in the test on HCT116 [1] (ICRF193 0 nM) was > 45.8 µM; in the test on HCT116 [1] (ICRF193 200 nM), 18.3 µM. In the test with HCT116 [2] (ICRF193 200 nM), this compound registered an efficacy of 47.3%.
With `CN(C)CC/C=C1\c2ccccc2CSc2ccccc21` [Dosulepin hydrochloride], the IC50 cell viability in the test with HCT116 [1] (ICRF193 0 nM) worked out at 20.6 µM; in the test with HCT116 [1] (ICRF193 200 nM), 29.1 µM. For the same compound, the efficacy in the test with HCT116 [2] (ICRF193 0 nM) was 67.8%; with HCT116 [2] (ICRF193 200 nM), 69.1%.
For the compound `COc1cc2nc(N3CCN(C(=O)C4COc5ccccc5O4)CC3)nc(N)c2cc1OC` (stereo not drawn) [Doxazosin mesylate], the results for the IC50 cell viability with HCT116 [1] (ICRF193 0 nM) and with HCT116 [1] (ICRF193 200 nM) were 29.1 µM and 18.3 µM, respectively. The efficacy with HCT116 [2] (ICRF193 0 nM) was 106%; in the test with HCT116 [2] (ICRF193 200 nM), 95.6%.
In the same order, the values of `C=C1/C(=C\C=C2/CCC[C@]3(C)[C@@H]([C@H](C)/C=C/[C@H](C)C(C)C)CC[C@@H]23)C[C@@H](O)C[C@@H]1O` [Doxercalciferol] are 29.1 µM, 29.1 µM, 101% and 102%.
In the same order, the values of `C[C@H]1c2cccc(O)c2C(=O)C2=C(O)[C@]3(O)C(=O)C(C(N)=O)=C(O)[C@@H](N(C)C)[C@@H]3[C@@H](O)[C@@H]21` [Doxycycline] are 16.4 µM, 23.1 µM, 41.6% and 62.7%.
As to `CCCCc1oc2ccc(NS(C)(=O)=O)cc2c1C(=O)c1ccc(OCCCN(CCCC)CCCC)cc1` [Dronedarone hydrochloride], the values for the IC50 cell viability with HCT116 [1] (ICRF193 0 nM) and in the test with HCT116 [1] (ICRF193 200 nM) were 20.6 µM and 29.1 µM, respectively. Further, the values for the efficacy with HCT116 [2] (ICRF193 0 nM) and with HCT116 [2] (ICRF193 200 nM) were 115% and 68.2%, respectively.
In the same order, the values of `C[C@]12CCC(=O)C=C1[C@@H]1C[C@@H]1[C@H]1[C@@H]3[C@@H]4C[C@@H]4[C@@]4(CCC(=O)O4)[C@@]3(C)CC[C@@H]12` [Drospirenone] are 18.3 µM, 23.1 µM, 51.3% and 49.1%.
As to `CNCC[C@H](Oc1cccc2ccccc12)c1cccs1` [Duloxetine hydrochloride], the figures for the IC50 cell viability in the test with HCT116 [1] (ICRF193 0 nM) and in the test on HCT116 [1] (ICRF193 200 nM) were 18.3 µM and 20.6 µM, respectively. Also, the efficacy with HCT116 [2] (ICRF193 0 nM) was 93%; in the test with HCT116 [2] (ICRF193 200 nM) it was 105%.
As to `CC(=O)[C@H]1CC[C@H]2[C@@H]3C=CC4=CC(=O)CC[C@@]4(C)[C@@H]3CC[C@]12C` [Dydrogesterone], the IC50 cell viability in the test on HCT116 [1] (ICRF193 0 nM) was > 45.8 µM; in the test with HCT116 [1] (ICRF193 200 nM) it was 20.6 µM. The compound further showed an efficacy in the test with HCT116 [2] (ICRF193 200 nM) of 41.7%.
For `CC[C@H]1CN2CCc3cc(OC)c(OC)cc3[C@@H]2C[C@@H]1C[C@H]1NCCc2cc(OC)c(OC)cc21` [EMETINE DIHYDROCHLORIDE], the IC50 cell viability amounted to 0.146 µM in the test on HCT116 [1] (ICRF193 0 nM) and 0.13 µM with HCT116 [1] (ICRF193 200 nM). In addition, the efficacy stood at 70.8% in the test with HCT116 [2] (ICRF193 0 nM) and 76.6% in the test with HCT116 [2] (ICRF193 200 nM).
For the compound `C=C1CC[C@H](O)C/C1=C/C=C1\CCC[C@]2(C)[C@@H]([C@H](C)/C=C/[C@H](C)C(C)C)CC[C@@H]12` [ERGOCALCIFEROL], the IC50 cell viability in the test on HCT116 [1] (ICRF193 0 nM) is > 45.8 µM; in the test on HCT116 [1] (ICRF193 200 nM), 29.1 µM. In the test on HCT116 [2] (ICRF193 200 nM), this compound displayed an efficacy of 56.2%.
Regarding `Cc1cc(-c2ccc(/N=N/c3ccc4c(S(=O)(=O)O)cc(S(=O)(=O)O)c(N)c4c3O)c(C)c2)ccc1/N=N/c1ccc2c(S(=O)(=O)O)cc(S(=O)(=O)O)c(N)c2c1O` [EVANS BLUE], the IC50 cell viability in the test with HCT116 [1] (ICRF193 0 nM) and in the test on HCT116 [1] (ICRF193 200 nM) was 18.3 µM in each case. Besides, the results for the efficacy with HCT116 [2] (ICRF193 0 nM) and in the test with HCT116 [2] (ICRF193 200 nM) were 95.6% and 87.8%, respectively.
`CC(C)(C)c1ccc(C(=O)CCCN2CCC(OC(c3ccccc3)c3ccccc3)CC2)cc1` [Ebastine]: the IC50 cell viability with HCT116 [1] (ICRF193 0 nM) amounted to 29.1 µM; in the test with HCT116 [1] (ICRF193 200 nM), 23.1 µM. Besides, the efficacy was 115% with HCT116 [2] (ICRF193 0 nM) and 112% in the test with HCT116 [2] (ICRF193 200 nM).
In the case of `CC(C)c1cc2c(cc1S(=O)(=O)O)[C@@]1(C)CCC[C@@](C)(C(=O)O)[C@@H]1CC2` [Ecabet], the values for the IC50 cell viability with HCT116 [1] (ICRF193 0 nM) and with HCT116 [1] (ICRF193 200 nM) were > 45.8 µM and 0.103 µM, respectively. The compound further showed an efficacy in the test with HCT116 [2] (ICRF193 200 nM) of 63.3%.
For `Clc1ccc(COC(Cn2ccnc2)c2ccc(Cl)cc2Cl)cc1` (stereo not drawn) [Econazole nitrate], the IC50 cell viability with HCT116 [1] (ICRF193 0 nM) and in the test with HCT116 [1] (ICRF193 200 nM) was 20.6 µM each time. For the same compound, the values for the efficacy in the test on HCT116 [2] (ICRF193 0 nM) and in the test with HCT116 [2] (ICRF193 200 nM) were 90.3% and 96%, respectively.
`O=C1Nc2ccc(Cl)cc2[C@@](C#CC2CC2)(C(F)(F)F)O1` [Efavirenz]: the IC50 cell viability stood at 20.6 µM in the test on HCT116 [1] (ICRF193 0 nM) and 25.9 µM in the test with HCT116 [1] (ICRF193 200 nM). In addition, the efficacy is 56.7% in the test on HCT116 [2] (ICRF193 0 nM) and 44.6% in the test on HCT116 [2] (ICRF193 200 nM).
Take `CC1=C(C(=O)OCCN(Cc2ccccc2)c2ccccc2)C(c2cccc([N+](=O)[O-])c2)C(P2(=O)OCC(C)(C)CO2)=C(C)N1` (stereo not drawn) [Efonidipine hydrochloride monoethanolate]: the values for the IC50 cell viability in the test on HCT116 [1] (ICRF193 0 nM) and with HCT116 [1] (ICRF193 200 nM) were 16.4 µM and > 45.8 µM, respectively. This compound also registered an efficacy in the test with HCT116 [2] (ICRF193 0 nM) of 41.1%.
On to `CCCCCCCC(=O)N[C@H](CN1CCCC1)[C@H](O)c1ccc2c(c1)OCCO2` [Eliglustat (Tartrate)], for which the IC50 cell viability with HCT116 [1] (ICRF193 0 nM) was > 45.8 µM; in the test on HCT116 [1] (ICRF193 200 nM), 29.1 µM. In the test on HCT116 [2] (ICRF193 200 nM), this compound registered an efficacy of 44.2%.
For the compound `CC1=NN(c2ccc(C)c(C)c2)C(=O)/C1=N\Nc1cccc(-c2cccc(C(=O)O)c2)c1O` [Eltrombopag olamine], the IC50 cell viability is 6.51 µM in the test with HCT116 [1] (ICRF193 0 nM) and > 45.8 µM in the test on HCT116 [1] (ICRF193 200 nM). In addition, in the test with HCT116 [2] (ICRF193 0 nM), the efficacy came out at 41.9%.
As for `COc1cc2c(cc1Cc1cccc(Cl)c1F)c(=O)c(C(=O)O)cn2[C@H](CO)C(C)C` [Elvitegravir], the IC50 cell viability is 18.3 µM with HCT116 [1] (ICRF193 0 nM) and 20.6 µM in the test on HCT116 [1] (ICRF193 200 nM). In addition, the efficacy in the test on HCT116 [2] (ICRF193 0 nM) is 71.8%; in the test on HCT116 [2] (ICRF193 200 nM), 83%.
